From patent US20030013660A1, “Dioxolane analogs for improved inter-cellular delivery” (Shire BioChem Inc., priority 2000, published 2003)

Tests used:
CEM cells = assay: CellTiter 96 cell proliferation assay (chemosensitivity), 48 h; type: cell-based
Procedure: (§1) The chemosensitivity of suspension cells lines (e.g., CEM or CEM-derivatives) is assessed using the CellTiter 96 ? proliferation assay. […] Adherent cell lines (e.g., DU145 or DU145^R) are seeded (^˜10^5 cells) in triplicate dishes, 24 h before drug exposure. Growth inhibition is determined by trypsinization and counting cells electronically.

CEM/ARAC8C cells = assay: as above; type: cell-based; conditions: read-out: EC50 (50% of the dose response curve); CEM/ARAC8C cells, 48 h exposure
Procedure: as §1

CEM/dCK cells = assay: as above; type: cell-based; conditions: read-out: EC50 (50% of the dose response curve), 48 h exposure
Procedure: as §1

hCNT1 = biological target: T1, hCNT1 (Homo sapiens, UniProt O00337); assay: Uptake by recombinant transporter in transiently transfected HeLa cells; type: in vitro ADME; conditions: 10 μM, 100 μM dilazep
T1 construct: expressed in transfected cells; host or cells: HeLa cells, transient transfection with pcDNA3-hCNT1
T1 sequence (O00337 1-649): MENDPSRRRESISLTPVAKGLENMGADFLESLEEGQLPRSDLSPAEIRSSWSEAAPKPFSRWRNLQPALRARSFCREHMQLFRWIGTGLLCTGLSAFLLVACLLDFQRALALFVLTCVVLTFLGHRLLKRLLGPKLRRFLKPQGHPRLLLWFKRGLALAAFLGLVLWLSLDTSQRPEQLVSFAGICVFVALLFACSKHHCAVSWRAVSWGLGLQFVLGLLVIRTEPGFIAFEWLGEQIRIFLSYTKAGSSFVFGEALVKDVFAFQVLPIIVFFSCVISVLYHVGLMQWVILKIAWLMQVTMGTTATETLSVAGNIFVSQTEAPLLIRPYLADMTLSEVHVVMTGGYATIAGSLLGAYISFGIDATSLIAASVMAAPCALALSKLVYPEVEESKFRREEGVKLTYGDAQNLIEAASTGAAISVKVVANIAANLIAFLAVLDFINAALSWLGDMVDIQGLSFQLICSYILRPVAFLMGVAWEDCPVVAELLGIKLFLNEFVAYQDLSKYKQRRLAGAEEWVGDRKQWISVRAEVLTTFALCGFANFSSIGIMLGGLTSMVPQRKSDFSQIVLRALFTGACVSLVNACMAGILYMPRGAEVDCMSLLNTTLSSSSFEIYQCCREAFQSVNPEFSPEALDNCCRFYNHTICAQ
Procedure: (§2) Transport assays were conducted in the presence of the equilibrative transport inhibitor, 100 μM dilazep and either in the presence ( ? ) or absence (▴) of […].sodium, and compared to HeLa cells transiently transfected with the empty vector control plasmic (▾).
(§3) Cancer Res., 56: 4187-4191.
(§4) Expression plasmids encoding recombinant hCNT1 and hCNT2 are prepared using conventional methods. […] The expression vectors are separately introduced into actively proliferating HeLa cells, following conventional methods. See, e.g., Fang et al (1996).
(§5) Recombinant hCNT1 and hCNT2 were separately introduced into HeLa cells by transient transfection of pcDNA3 plasmids containing the coding sequences of the relevant nucleoside transporter protein. […] Uptake of 10 μM [^3H]troxacitabine was not mediated either by hCNT1 or by hCNT2. Troxacitabine uptake by cib-activity (hCNT3) in differentiated HL-60 cells: […]

hCNT2 = biological target: T2, hCNT2 (Homo sapiens, UniProt O43868); assay: as above; type: in vitro ADME; conditions: 10 μM, 100 μM dilazep
T2 construct: expressed in transfected cells; host or cells: HeLa cells, transient transfection with pcDNA3-hCNT2
T2 sequence (O43868 1-658): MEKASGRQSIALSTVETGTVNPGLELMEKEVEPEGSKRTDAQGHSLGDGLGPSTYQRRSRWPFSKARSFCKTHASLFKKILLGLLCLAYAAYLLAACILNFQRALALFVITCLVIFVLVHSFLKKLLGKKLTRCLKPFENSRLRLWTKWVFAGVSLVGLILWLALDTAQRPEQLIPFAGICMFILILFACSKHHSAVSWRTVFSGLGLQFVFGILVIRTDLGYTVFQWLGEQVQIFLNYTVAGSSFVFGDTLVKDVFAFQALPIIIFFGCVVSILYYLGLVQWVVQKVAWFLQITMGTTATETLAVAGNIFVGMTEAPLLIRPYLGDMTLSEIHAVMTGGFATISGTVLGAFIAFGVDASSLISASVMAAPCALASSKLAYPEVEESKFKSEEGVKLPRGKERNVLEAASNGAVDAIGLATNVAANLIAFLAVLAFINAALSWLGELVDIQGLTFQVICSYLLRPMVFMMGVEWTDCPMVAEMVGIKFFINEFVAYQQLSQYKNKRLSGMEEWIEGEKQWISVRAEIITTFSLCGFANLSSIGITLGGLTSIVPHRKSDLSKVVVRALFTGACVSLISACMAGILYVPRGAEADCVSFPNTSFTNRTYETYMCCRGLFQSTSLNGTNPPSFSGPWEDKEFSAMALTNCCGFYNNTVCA
Procedure: as §2, §3, §4, §5

hENT1 = biological target: T3, hENT1 (Homo sapiens, UniProt Q99808); assay: Cellular uptake assay of [3H]nucleoside in CEM cells (es activity); type: in vitro ADME; design: endogenous in cells; conditions: compared with uridine
T3 sequence (Q99808 1-456): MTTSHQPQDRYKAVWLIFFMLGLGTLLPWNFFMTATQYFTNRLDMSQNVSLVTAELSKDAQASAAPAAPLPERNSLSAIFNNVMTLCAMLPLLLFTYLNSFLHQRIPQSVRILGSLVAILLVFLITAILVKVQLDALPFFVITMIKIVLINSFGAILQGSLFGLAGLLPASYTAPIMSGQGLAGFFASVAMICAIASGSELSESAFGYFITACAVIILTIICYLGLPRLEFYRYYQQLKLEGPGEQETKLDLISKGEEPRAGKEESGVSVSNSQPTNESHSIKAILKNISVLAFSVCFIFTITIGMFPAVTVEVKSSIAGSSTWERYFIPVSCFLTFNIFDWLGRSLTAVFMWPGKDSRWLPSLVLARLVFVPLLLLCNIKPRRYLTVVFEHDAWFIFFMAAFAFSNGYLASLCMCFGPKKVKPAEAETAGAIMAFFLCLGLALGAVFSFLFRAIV
Procedure: FIG. 1 Comparative uptake of 30 μM [^3H]-troxacitabine in CEM (Panel A) and CEM/ARAC8C (Panel B) cells. [^3H]-Uridine uptake in either the presence or absence of the hENT1 inhibitor, NBMPR or 5 mM non-radioactive uridine was included for comparison as a control substrate.
as §3
The transport of [^3H]uridine was inhibited in the presence either of the hENT1 inhibitor, NBMPR, or excess non-radioactive uridine.

uptake mediated by hCNT1 (hCNT1): not mediated | uptake mediated by hCNT2 (hCNT2): not mediated | uptake of [3H]nucleoside over the 6-min time course (hENT1): taken up to a lesser degree
SMILES: Nc1ccn([C@@H]2CO[C@H](CO)O2)c(=O)n1 [Troxacitabine, troxacitabine]
EC50 (CEM cells; Homo sapiens, CCRF-CEM, read-out: EC50 (50% of the dose response curve), CEM cells, 48 h exposure): 160 nM | effect of the es transport inhibitor NBMPR on resistance of CEM cells (CEM cells; presence of NBMPR): not | EC50 (CEM/ARAC8C cells): 1180 nM | EC50 (CEM/dCK cells): > 100000 nM
